The structures appear in SMILES notation. Activity calls are given as the source filed them. How the calls were made is not given here.

In this data set the test system is CCRIS mutagenicity, Ames/micronucleus/aberration tests. The data set can be described thus: CCRIS mutagenicity studies.
The mark [1] stands for this setting: Test System: AMES SALMONELLA TYPHIMURIUM, Strain/Indicator: TA100, Metabolic Activation: NONE, Method: STANDARD PLATE.
Setting [2] is: Test System: AMES SALMONELLA TYPHIMURIUM, Strain/Indicator: TA98, Metabolic Activation: NONE, Method: STANDARD PLATE.
[3] abbreviates: Test System: AMES SALMONELLA TYPHIMURIUM, Strain/Indicator: TA1535, Metabolic Activation: NONE, Method: STANDARD PLATE.

With `O=C(O)COc1ccc(C(=O)c2cccs2)c(Cl)c1Cl`, the mutagenic call (Test System: AMES SALMONELLA TYPHIMURIUM, Strain/Indicator: TA100(FR1), Metabolic Activation: NONE, Method: STANDARD PLATE) is “inactive; negative”; the mutagenic call (Test System: AMES SALMONELLA TYPHIMURIUM, Strain/Indicator: TA100(FR1), Metabolic Activation: RAT, LIVER, S-9, PHENOBARBITAL AND 3-METHYLCHOLANTHRENE, Method: STANDARD PLATE) was “inactive; negative”; the mutagenic call under setting [1] is “inactive; negative”; the mutagenic call (Test System: AMES SALMONELLA TYPHIMURIUM, Strain/Indicator: TA100, Metabolic Activation: RAT, LIVER, S-9, PHENOBARBITAL AND 3-METHYLCHOLANTHRENE, Method: STANDARD PLATE) is “inactive; negative”; the mutagenic call (Test System: CHINESE HAMSTER V-79, Strain/Indicator: V-79/6-THIOGUANINE, Metabolic Activation: NONE) was “inactive; negative”; the mutagenic call (Test System: CHINESE HAMSTER V-79, Strain/Indicator: V-79/6-THIOGUANINE, Metabolic Activation: RAT, LIVER, HEPATOCYTES (SHERMAN OR SPRAGUE-DAWLEY RATS)) is “inactive; negative”. Besides, the mutagenic call is “active; positive” (Test System: CHINESE HAMSTER V-79, Strain/Indicator: V-79/OUABAIN, Metabolic Activation: NONE) and “active; positive” (Test System: CHINESE HAMSTER V-79, Strain/Indicator: V-79/OUABAIN, Metabolic Activation: RAT, LIVER, HEPATOCYTES (SHERMAN OR SPRAGUE-DAWLEY RATS)).

Take `CC1(C)C[C@H]2C=C(C=O)[C@]3(C=O)C[C@]3(C)[C@H]2C1`: the mutagenic call under setting [2] is “active; positive”; the mutagenic call under setting [1] is “active; positive”; the mutagenic call (Test System: AMES SALMONELLA TYPHIMURIUM, Strain/Indicator: TA2637, Metabolic Activation: NONE, Method: STANDARD PLATE) was “active; positive”; the mutagenic call (Test System: CHINESE HAMSTER V-79, Strain/Indicator: V-79/6-THIOGUANINE (HGPRT), Metabolic Activation: NONE) was “active; positive”.

`O=NN(c1ccc([N+](=O)[O-])cc1)C1OC[C@@H](O)[C@@H](O)[C@H]1O` (some centres not stated): the mutagenic call under setting [1] is “active; positive”.

With `c1ccc2c(COCC3CO3)cccc2c1` (configuration not stated), the mutagenic call is “active; positive” under setting [1] and “active; positive” under setting [3].

Consider `CCC#N`, for which the mutagenic call (End Point: IN VITRO CHROMOSOMAL ABERRATIONS, Test System: CHO-LB CELLS, Metabolic Activation: NONE) is “inactive; negative”; the mutagenic call (End Point: IN VITRO CHROMOSOMAL ABERRATIONS, Test System: CHO-LB CELLS, Metabolic Activation: RAT, LIVER, S-9, AROCLOR 1254) is “inactive; negative”; the mutagenic call (Test System: AMES SALMONELLA TYPHIMURIUM, Strain/Indicator: TA97, Metabolic Activation: HAMSTER, LIVER, S-9, AROCLOR 1254 (10 OR 30%), Method: PREINCUBATION) is “inactive; negative”; the mutagenic call (Test System: AMES SALMONELLA TYPHIMURIUM, Strain/Indicator: TA97, Metabolic Activation: NONE, Method: PREINCUBATION) was “inactive; negative”; the mutagenic call (Test System: AMES SALMONELLA TYPHIMURIUM, Strain/Indicator: TA97, Metabolic Activation: RAT, LIVER, S-9, AROCLOR 1254 (10 OR 30%), Method: PREINCUBATION) was “inactive; negative”; the mutagenic call (Test System: AMES SALMONELLA TYPHIMURIUM, Strain/Indicator: TA98, Metabolic Activation: HAMSTER, LIVER, S-9, AROCLOR 1254 (10 OR 30%), Method: PREINCUBATION) is “inactive; negative”. Also, the mutagenic call reads like this: (Test System: AMES SALMONELLA TYPHIMURIUM, Strain/Indicator: TA98, Metabolic Activation: NONE, Method: PREINCUBATION) “inactive; negative”; (Test System: AMES SALMONELLA TYPHIMURIUM, Strain/Indicator: TA98, Metabolic Activation: RAT, LIVER, S-9, AROCLOR 1254 (10 OR 30%), Method: PREINCUBATION) “inactive; negative”; (Test System: AMES SALMONELLA TYPHIMURIUM, Strain/Indicator: TA100, Metabolic Activation: HAMSTER, LIVER, S-9, AROCLOR 1254 (10 OR 30%), Method: PREINCUBATION) “inactive; negative”; (Test System: AMES SALMONELLA TYPHIMURIUM, Strain/Indicator: TA100, Metabolic Activation: NONE, Method: PREINCUBATION) “inactive; negative”; (Test System: AMES SALMONELLA TYPHIMURIUM, Strain/Indicator: TA100, Metabolic Activation: RAT, LIVER, S-9, AROCLOR 1254 (10 OR 30%), Method: PREINCUBATION) “inactive; negative”; (Test System: AMES SALMONELLA TYPHIMURIUM, Strain/Indicator: TA1535, Metabolic Activation: HAMSTER, LIVER, S-9, AROCLOR 1254 (10 OR 30%), Method: PREINCUBATION) “inactive; negative”. In addition, the mutagenic call is “inactive; negative” (Test System: AMES SALMONELLA TYPHIMURIUM, Strain/Indicator: TA1535, Metabolic Activation: NONE, Method: PREINCUBATION) and “inactive; negative” (Test System: AMES SALMONELLA TYPHIMURIUM, Strain/Indicator: TA1535, Metabolic Activation: RAT, LIVER, S-9, AROCLOR 1254 (10 OR 30%), Method: PREINCUBATION).

`NC(=O)c1csc([N+](=O)[O-])c1`: the mutagenic call was “active; positive” under setting [2] and “active; positive” under setting [1].

As for `C(CC1CO1)C1CO1` (configuration not stated), the mutagenic call reads like this: under setting [1], “active; positive”; under setting [3], “active; positive”.

For `c1ccc(CSSCc2ccccc2)cc1`, the mutagenic call (Test System: AMES SALMONELLA TYPHIMURIUM, Strain/Indicator: TA97, Metabolic Activation: NONE, Method: STANDARD PLATE) is “inactive; negative”; the mutagenic call (Test System: AMES SALMONELLA TYPHIMURIUM, Strain/Indicator: TA97, Metabolic Activation: S-9, Method: STANDARD PLATE) is “inactive; negative”; the mutagenic call under setting [2] is “inactive; negative”; the mutagenic call (Test System: AMES SALMONELLA TYPHIMURIUM, Strain/Indicator: TA98, Metabolic Activation: S-9, Method: STANDARD PLATE) was “inactive; negative”; the mutagenic call under setting [1] was “inactive; negative”; the mutagenic call (Test System: AMES SALMONELLA TYPHIMURIUM, Strain/Indicator: TA100, Metabolic Activation: S-9, Method: STANDARD PLATE) was “inactive; negative”. In addition, the mutagenic call is, setting by setting: (Test System: AMES SALMONELLA TYPHIMURIUM, Strain/Indicator: TA102, Metabolic Activation: NONE, Method: STANDARD PLATE) “active; positive”; (Test System: AMES SALMONELLA TYPHIMURIUM, Strain/Indicator: TA102, Metabolic Activation: S-9, Method: STANDARD PLATE) “active; positive”.

As to `Clc1ccc(CN2[C@@H]3c4ccccc4-c4ccccc4[C@@H]32)cc1` (some centres not stated), the mutagenic call under setting [1] was “active; positive”.

The record behind these values is PubChem BioAssay AID1259407 (Chemical Carcinogenesis Research Information System (CCRIS), 2018).
